Results: patent publication US11390604B2 (Hoffmann-La Roche Inc., priority 2019, dated 2022)
Structures can show the parent of a compound that is named as a salt.

These compounds were tested on Acinetobacter baumannii ATCC 17961 (assay: Antimicrobial susceptibility testing: 90% growth inhibitory concentration (IC90) determination). Conditions: ATCC17961, Acinetobacter baumannii ATCC 17961, Iso-Sensitest broth, read-out: ATCC 17961 IC90.
Type: cell-based
How it was run: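 Broth microdilution in Iso-Sensitest medium, twofold series (e.g. 50 to 0.097 μM final), ~5×10^5 CFU/ml inoculum, 35±2 °C. OD600 read every 20 min over 16 h. IC90 derived from growth inhibition during logarithmic phase.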

| Compound | IC90 |
| --- | --- |
| Cn1c(-c2cn([C@@H]3CC3(F)F)nc2C(F)(F)F)cnc1C(=O)Nc1ccc(C(=O)N[C@H]2[C@@H]3CN(C(=O)N[C@H]4CNC[C@@H]4O)C[C@@H]32)c(Cl)c1 [Example 380, (1R,5S,6R)-6-(2-chloro-4-(5-(1-((R)-2,2-difluorocyclopropyl)-3-(trifluoromethyl)-1H-pyrazol-4-yl)-1-methyl-1H-imidazole-2-carboxamido)benzamido)-N-((3S,4S)-4-hydroxypyrrolidin-3-yl)-3-azabicyclo[3.1.0]hexane-3-carboxamide] | 104 nM |
| Cn1c(-c2cn(C3CC3)nc2C(F)(F)F)cnc1C(=O)Nc1ccc(C(=O)N2CCN(C(=O)[C@H]3[C@@H]4CNC[C@@H]43)CC2)c(Cl)c1 [Example 383, N-[3-chloro-4-[4-[rac-(1R,5S)-3-azabicyclo[3.1.0]hexane-6-carbonyl]piperazine-1-carbonyl]phenyl]-5-[1-cyclopropyl-3-(trifluoromethyl)pyrazol-4-yl]-1-methylimidazole-2-carboxamide;hydrochloride] | 234 nM |
| C#CCn1cc(-c2cnc(C(=O)Nc3ccc(C(=O)N[C@H]4[C@@H]5CN(C(=O)N[C@@H]6CNC[C@H]6O)C[C@@H]54)c(Cl)c3)n2C)c(C(F)(F)F)n1 [Example 384, (1R,5S,6s)-6-(2-chloro-4-(1-methyl-5-(1-(prop-2-yn-1-yl)-3-(trifluoromethyl)-1H-pyrazol-4-yl)-1H-imidazole-2-carboxamido)benzamido)-N-((3R,4R)-4-hydroxypyrrolidin-3-yl)-3-azabicyclo[3.1.0]hexane-3-carboxamide formate] | 64 nM |
| Cn1c(-c2cn(CC(F)F)nc2C(F)(F)F)cnc1C(=O)Nc1ccc(C(=O)N[C@H]2[C@@H]3CN(C(=O)N[C@@H]4CNC[C@H]4O)C[C@@H]32)c(Cl)c1 [Example 386, (1R,5S,6s)-6-(2-chloro-4-(5-(1-(2,2-difluoroethyl)-3-(trifluoromethyl)-1H-pyrazol-4-yl)-1-methyl-1H-imidazole-2-carboxamido)benzamido)-N-((3R,4R)-4-hydroxypyrrolidin-3-yl)-3-azabicyclo[3.1.0]hexane-3-carboxamide formate] | 110 nM |
| C=CCn1cc(-c2cnc(C(=O)Nc3ccc(C(=O)N[C@H]4[C@@H]5CN(C(=O)N[C@@H]6CNC[C@H]6O)C[C@@H]54)c(Cl)c3)n2C)c(C(F)(F)F)n1 [Example 387, (1R,5S,6s)-6-(4-(5-(1-allyl-3-(trifluoromethyl)-1H-pyrazol-4-yl)-1-methyl-1H-imidazole-2-carboxamido)-2-chlorobenzamido)-N-((3R,4R)-4-hydroxypyrrolidin-3-yl)-3-azabicyclo[3.1.0]hexane-3-carboxamide formate] | 130 nM |
| Cn1c(-c2cn(CC3CCC3)nc2C(F)(F)F)cnc1C(=O)Nc1ccc(C(=O)N[C@H]2[C@@H]3CN(C(=O)N[C@@H]4CNC[C@H]4O)C[C@@H]32)c(Cl)c1 [Example 388, (1R,5S,6s)-6-(2-chloro-4-(5-(1-(cyclobutylmethyl)-3-(trifluoromethyl)-1H-pyrazol-4-yl)-1-methyl-1H-imidazole-2-carboxamido)benzamido)-N-((3R,4R)-4-hydroxypyrrolidin-3-yl)-3-azabicyclo[3.1.0]hexane-3-carboxamide formate] | 170 nM |

Same assay, conditions: Acinetobacter baumannii ATCC 17961, Iso-Sensitest broth, read-out: ATCC 17961 IC90

| Compound | IC90 |
| --- | --- |
| N-(3-amino-3- methylcyclobutyl)-4-[2-chloro- 4-[[5-[1-cyclopropyl-3- (trifluoromethyl)pyrazol-4-yl]- 1-methylimidazole-2- carbonyl]amino]benzoyl]pipera- zine-1-carboxamide;formic acid [Example 238] | 273 nM |
| N-[4-[4-[(3S)-3-carbonyl]piperazine-1-carbonyl]-3-chlorophenyl]-1-methyl-5-[1-prop-2-ynyl-3-(trifluoromethyl)pyrazol-4-yl]imidazole-2-carboxamide [Example 80] | 212 nM |
| N-[4-[(4-aminocyclohexyl)carbamoyl]-3-chlorophenyl]-1-methyl-5-[3-(trifluoromethyl)-1H-pyrazol-4-yl]imidazole-2-carboxamide;2,2,2-trifluoroacetic acid [Example 123] | 3840 nM |
| formic acid;rac-(1S,5R)-8-[2- chloro-4-[[5-[1-(2,2- difluorocyclopropyl)-3- (trifluoromethyl)pyrazol-4-yl]- 1-methyl-imidazole-2- carbonyl]amino]benzoyl]-N- [rac-(3S,4S)-4- hydroxypyrrolidin-3-yl]-3,8- diazabicyclo[3.2.1]octane-3- carboxamide [Example 377] | 497 nM |
| rac-4-(2-chloro-4-(5-(1- cyclopropyl-3-(trifluoromethyl)- 1H-pyrazol-4-yl)-1-methyl-1H- imidazole-2- carboxamido)benzoyl)-N- ((1s,3s)-3- (methylamino)cyclobutyl)pipera- zine-1-carboxamide formate [Example 256] | 313 nM |
